In patent US10363251B2, “(+)-morphinans as antagonists of toll-like receptor 9 and therapeutic uses thereof” (Mallinckrodt LLC, priority 2009, dated 2019):
Like-named read-outs stand apart in the source and are kept apart here.

Target: T1, TLR9 (Homo sapiens, UniProt Q9NR96)
T1 construct: expressed in transfected cells; host or cells: HEK293
T1 sequence (Q9NR96 26-1032): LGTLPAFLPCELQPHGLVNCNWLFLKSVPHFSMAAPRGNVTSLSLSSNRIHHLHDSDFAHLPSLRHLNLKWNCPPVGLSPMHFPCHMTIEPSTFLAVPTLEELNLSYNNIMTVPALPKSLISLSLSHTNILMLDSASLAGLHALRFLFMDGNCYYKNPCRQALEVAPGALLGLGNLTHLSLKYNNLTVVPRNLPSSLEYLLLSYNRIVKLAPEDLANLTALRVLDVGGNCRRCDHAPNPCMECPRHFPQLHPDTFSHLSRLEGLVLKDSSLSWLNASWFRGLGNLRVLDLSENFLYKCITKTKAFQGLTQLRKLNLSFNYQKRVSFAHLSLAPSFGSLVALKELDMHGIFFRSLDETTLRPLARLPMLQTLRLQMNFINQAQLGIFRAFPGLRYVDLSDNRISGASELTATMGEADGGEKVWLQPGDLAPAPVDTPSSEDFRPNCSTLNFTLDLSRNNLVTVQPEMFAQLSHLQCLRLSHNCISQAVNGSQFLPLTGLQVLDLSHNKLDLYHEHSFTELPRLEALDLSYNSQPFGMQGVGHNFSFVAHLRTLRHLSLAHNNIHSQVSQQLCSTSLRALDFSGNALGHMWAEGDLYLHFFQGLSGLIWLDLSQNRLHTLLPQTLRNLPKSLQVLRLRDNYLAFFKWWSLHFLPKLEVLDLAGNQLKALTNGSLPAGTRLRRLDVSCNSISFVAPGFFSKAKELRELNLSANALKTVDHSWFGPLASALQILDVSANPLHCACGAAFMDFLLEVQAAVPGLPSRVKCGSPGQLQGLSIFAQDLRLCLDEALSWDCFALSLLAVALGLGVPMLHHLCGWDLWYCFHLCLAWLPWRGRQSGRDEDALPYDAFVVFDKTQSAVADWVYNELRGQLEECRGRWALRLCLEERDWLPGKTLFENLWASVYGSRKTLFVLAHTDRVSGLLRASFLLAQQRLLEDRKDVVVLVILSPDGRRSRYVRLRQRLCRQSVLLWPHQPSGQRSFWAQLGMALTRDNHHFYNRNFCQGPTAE
Assay: TLR9 screening of (+)-morphinan library, SEAP reporter in HEK293 cells expressing TLR9
Type: cell-based
Settings: activator ODN2006; for OD 650 nm (mean ± sd): control (no activator) 0.14, activator 1.42 OD
Experimental: The secreted alkaline phosphatase reporter is under the control of a promoter inducible by the transcription factor NF-κB. A library of more than 100 (+)-morphinan compounds was screened for TLR9 antagonist activity by assessing NF-κB activation in the HEK293 cells expressing TLR9. This reporter gene allows the monitoring of signaling through the TLR, based on the activation of NF-κB.
In a 96-well plate (200 μL total volume) containing 50,000 cells/well, 20 μL of each sample compound was added to wells, in triplicate, followed by a 30 minute incubation at 37° C. and 5% CO2. After the 30 minutes of incubation, 20 μL of the activator ODN2006 was added to each well. The media added to the wells was designed for the detection of NF-κB induced SEAP expression. After a 16-20 hr incubation period, the OD at 650 nm was read on a Beckman Coulter AD 340C Absorbance Detector. All compounds were tested at concentrations of 10 μM and 100 nM.

[1] = HEK293, read-out: % Inhibition (mean), 100 nM
[2] = HEK293, read-out: % Inhibition (mean), 10 μM
[3] = HEK293, 100 nM, read-out: % Inhibition (mean)
[4] = HEK293, 10 μM, read-out: % Inhibition (mean)

Row | Structure (SMILES) | OD 650 nm (mean ± sd) (100 nM) [OD] | OD 650 nm (mean ± sd) (10 μM) [OD] | inhibition at 0.1 µM [1] [%] | inhibition at 10 µM [2] [%] | inhibition at 0.1 µM [3] [%] | inhibition at 10 µM [4] [%] | % Inhibition (mean) (100 nM, 0.1 µM) [%] | % Inhibition (mean) (10 μM) [%]
1 | OCCNC1CC[C@]2(O)[C@@H]3Cc4ccc(O)c5c4[C@]2(CCN3CC2CC2)[C@@H]1O5 (stereo partly drawn) [II-76] | 0.16 ± 0.01 | 0.10 ± 0.01 | 89 | 93 | – | – | – | –
2 | C=CCN1CC[C@@]23c4c5ccc(O)c4O[C@@H]2C(=O)CC[C@]3(OC)[C@@H]1C5 [II-70] | 1.12 ± 0.04 | 0.79 ± 0.03 | 21 | 45 | – | – | – | –
3 | COc1cc(Br)c2c(c1O)[C@@]13CCN(CC4CC4)C(C2)C1CCC(=O)C3 (stereo partly drawn) [Compound I-2] | 1.10 ± 0.06 | 0.14 ± 0.02 | 22 | 90 | – | – | – | –
4 | NC1CC[C@]2(O)[C@@H]3Cc4ccc(O)c5c4[C@]2(CCN3CC2CC2)[C@@H]1O5 (stereo partly drawn) [II-71] | 0.19 ± 0.01 | 0.10 ± 0.00 | 87 | 93 | – | – | – | –
5 | COC(=O)CCc1cc(OC)c(O)c2c1CC1C3CCC(=O)C[C@@]23CCN1CC1CC1 (stereo partly drawn) [Compound I-4] | 1.17 ± 0.06 | 0.46 ± 0.05 | 18 | 68 | – | – | – | –
6 | COc1ccc2c3c1O[C@@H]1C(=O)CC[C@]4(O)[C@H](C2)N(C)CC[C@@]314 [II-39] | 1.23 ± 0.03 | 1.06 ± 0.06 | 14 | 25 | – | – | – | –
7 | COc1cc(Br)c2c3c1O[C@@H]1C(=O)CCC4C(C2)N(CC2CC2)CC[C@]341 (stereo partly drawn) [II-23] | 1.16 ± 0.01 | 0.53 ± 0.05 | 18 | 63 | – | – | – | –
8 | COc1ccc2c3c1O[C@@H]1[C@@H]4CCC5(O4)[C@H](C2)N(CC2CC2)CC[C@@]315 [II-72] | 1.10 ± 0.02 | 0.49 ± 0.01 | 22 | 65 | – | – | – | –
9 | C=CCN1CC[C@]23C4=CC=C(OC)[C@H]2Oc2c(OC)ccc(c23)C[C@@H]41 [II-35] | 1.04 ± 0.08 | 0.34 ± 0.03 | 27 | 76 | – | – | – | –
10 | [O-][N+]1(CC2CC2)CC[C@@]23c4c5ccc(O)c4O[C@@H]2[C@H](O)CC[C@]3(O)[C@@H]1C5 (stereo partly drawn) [II-90] | 1.39 ± 0.03 | 0.17 ± 0.05 | 2 | 88 | – | – | – | –
11 | COc1ccc2c3c1O[C@@H]1C(O)CC[C@]4(O)[C@H](C2)N(C)CC[C@@]314 (stereo partly drawn) [II-40] | 1.41 ± 0.13 | 1.37 ± 0.07 | 0 | 4 | – | – | – | –
12 | CN(C(=O)/C=C/c1ccoc1)[C@H]1CC[C@]2(O)[C@@H]3Cc4ccc(O)c5c4[C@]2(CC[N+]3([O-])CC2CC2)[C@@H]1O5 (stereo partly drawn) [II-63] | 0.23 ± 0.07 | 0.13 ± 0.01 | 84 | 91 | – | – | – | –
13 | COc1cc(Br)c2c(c1O)[C@@]13CCN(CC4CCC4)C(C2)C1CCC(=O)C3 (stereo partly drawn) [Compound I-8] | 1.13 ± 0.07 | 0.11 ± 0.01 | 20 | 92 | – | – | – | –
14 | C=C1CC[C@]2(O)[C@@H]3Cc4ccc(OC)c5c4[C@]2(CCN3C)[C@@H]1O5 [II-41] | 1.27 ± 0.03 | 1.02 ± 0.09 | 11 | 28 | – | – | – | –
15 | COC1=C[C@@H]2[C@@H]3Cc4ccc(OC)c(O)c4[C@]2(CCN3C)CC1O (stereo partly drawn) [Compound I-28] | 1.24 ± 0.02 | 0.12 ± 0.01 | 13 | 91 | – | – | – | –
16 | C=C(C)c1cc(OC)c(O)c2c1CC1C3CCC(=O)C[C@@]23CCN1CC1CC1 (stereo partly drawn) [Compound I-27] | 1.13 ± 0.04 | 0.10 ± 0.00 | 20 | 93 | – | – | – | –
17 | C=CCN1CC[C@@]23c4c5ccc(OC)c4O[C@@H]2C(NC(C)=O)CC[C@@H]3[C@@H]1C5 (stereo partly drawn) [II-20] | 1.29 ± 0.02 | 1.07 ± 0.04 | 9 | 25 | – | – | – | –
18 | COc1ccc2c(c1)CCN[C@@H]2Cc1ccc(OC)c(O)c1 [III-1] | 1.34 ± 0.06 | 0.67 ± 0.01 | – | – | 6 | 53 | – | –
19 | COc1ccc2c3c1O[C@@H]1C(NC(C)=O)CC[C@@H]4[C@H](C2)N(C)CC[C@@]314 (stereo partly drawn) [II-9] | 1.25 ± 0.09 | 1.00 ± 0.02 | 12 | 29 | – | – | – | –
20 | O=C1CC[C@@H]2[C@@H]3Cc4ccc(O)c5c4[C@]2(CCN3)[C@@H]1O5 [II-61] | 1.23 ± 0.02 | 1.22 ± 0.07 | 13 | 14 | – | – | – | –
21 | COC1=CCC2[C@@H]3Cc4ccc(OC)c5c4[C@]2(CCN3CC2CC2)[C@@H]1O5 (stereo partly drawn) [II-87] | 1.28 ± 0.06 | 0.45 ± 0.01 | – | – | – | – | 10 | 69
22 | C=CCN1CC[C@@]23CC(=O)CCC2C1Cc1c(-c2ccoc2)cc(OC)c(O)c13 (stereo partly drawn) [Compound I-3] | 1.12 ± 0.01 | 0.11 ± 0.00 | 21 | 92 | – | – | – | –
23 | C=C1CC[C@]2(O)[C@@H]3Cc4ccc(O)c5c4[C@]2(CCN3CC2CC2)[C@@H]1O5 [II-77] | 1.24 ± 0.04 | 0.98 ± 0.02 | 13 | 37 | – | – | – | –
24 | COc1ccc2c3c1O[C@@H]1C(O)CC[C@]4(O)[C@H](C2)N(CC2CC2)CC[C@@]314 (single isomer, unassigned) [II-53b] | 1.41 ± 0.09 | 1.00 ± 0.03 | – | – | – | – | 1 | 29
25 | COc1cc(Br)c2c3c1O[C@@H]1C(=O)CCC4C(C2)NCC[C@]341 (stereo partly drawn) [II-1] | 0.97 ± 0.04 | 0.19 ± −0.2 | 32 | 86 | – | – | – | –
26 | C=CCN1CC[C@@]23c4c5ccc(OC)c4O[C@@H]2C2(CC[C@@H]3[C@@H]1C5)OCCO2 [II-89] | 1.53 ± 0.10 | 1.08 ± 0.02 | -8 | 24 | – | – | – | –
27 | COc1ccc2c(c1O)[C@@]13CCN(CC4CC4)C(C2)C1CCC(=O)C3 (stereo partly drawn) [Compound I-6] | 1.29 ± 0.07 | 0.12 ± 0.02 | 9 | 91 | – | – | – | –
28 | C=CCN1CC[C@@]23c4c5c(Br)cc(OC)c4O[C@@H]2C(=O)CCC3C1C5 (stereo partly drawn) [II-16] | 1.43 ± 0.01 | 1.24 ± 0.11 | -1 | 13 | – | – | – | –
29 | C=CCN1CC[C@@]23c4c5ccc(OC)c4OC2C(OC(C)=O)CC[C@@H]3C1C5 (single isomer, unassigned) [II-94b] | 1.17 ± 0.03 | 1.30 ± 0.05 | – | – | – | – | 17 | 8
30 | COc1ccc2c(c1)CCN(C)[C@@H]2Cc1ccc(OC)c(O)c1 [III-5] | 1.11 ± 0.02 | 0.29 ± 0.01 | – | – | 22 | 80 | – | –
